Assay type in all cases: cell-based
One assay concerns A10 cells. In words: Cell cycle analysis by flow cytometry and BUdR staining, with nocodazole block. Conditions: for cell cycle arrest point: A10 cells treated 24 hours with T channel blocker before adding nocodazole, FIG. 3. The procedure: Cell cycle analysis was performed using flow cytometry and BUdR staining. In FIG. 3, “Con” represents untreated, control cells. All other cell cultures were treated with nocodazole, which interferes with microtubule polymerization and blocks the cell cycle during M phase. […] Therefore, cell cultures were treated for 24 hours with T channel calcium channel blockers mibefradil (mib), nickel (Ni) or TTL-1177 (a proprietary compound owned by the assignee Tau Therapeutics), before adding nocodazole.

Assay [1] relates to human lung cancer cells of cell line A549. Kind of assay: Cell cycle progression after mibefradil incubation, A549. The procedure:
(§1) To measure the efficacy of the cell cycle inhibitor mibefradil at stopping progression through the cell cycle, human lung cancer cells of cell line A549 and human prostate cancer cells of cell line were incubated with 10 μM mibefradil for 48 hours (M48H). […] Further data was collected by incubating the same cell lines with 10 μM of mibefradil for 18 hours followed by a 12 hour washout followed by another […] incubation with mibefradil (M18-12-18h).

Assay [2] relates to human prostate cancer cells. In words: Cell cycle progression after mibefradil incubation, prostate cancer cells. The procedure: as §1
The subject of assay [3] is human prostate cancer cells of cell line PC3. Kind of assay: Effect of mibefradil on the cell cycle of PC3 cells. Conditions: PC3, 5 μM or 10 μM for 24 hours or 48 hours; effect of increasing concentration and contact time; FIG. 5. The procedure: To measure the effect of mibefradil on the cell cycle of human prostate cancer cells of cell line PC3, PC3 cells were incubated with varying concentrations of mibefradil for varying times. The PC3 cells were incubated with either a 5 μM concentration or a 10 μM concentration for either 24 hours or 48 hours.

Assay [4] has as its system Human colon cancer cells, cell line HT29. In words: Uptake of imaging marker FDG after mibefradil, HT29. The note with it: FDG 60 minutes after removal. The procedure: The efficacy of the uptake of imaging markers after treatment with a cell cycle inhibitor was determined. Human colon cancer cells, cell line HT29, were first incubated for 24 hours with the cell cycle inhibitor mibefradil at concentrations of 5 μM (5 uM-FDG-HT29) and 10 μM (10 uM-FDG-HT29). After 24 hours of incubation with the mibefradil, the HT29 cells were removed from mibefradil contact. After 60 minutes of being removed from mibefradil contact, the imaging marker 2-deoxy-2-(^18F)fluoro-D-glucose (hereinafter, “FDG”) was administered.
With a concentration of 10 μM of mibefradil, the increase in uptake of FDG was about 100% as compared to uptake of cells not incubated with mibefradil.

In assay [5] the test system is human lung cancer cells of cell line A549. In words: Uptake of imaging marker 3H-FDG after mibefradil, A549. The note with it: 3H-FDG 30 minutes after removal. The procedure:
(§2) The uptake of an imaging marker was also determined in human lung cancer cells of cell line A549. A549 cells were incubated with 5 μM, 10 μM and 15 μM concentrations of the cell cycle inhibitor mibefradil for 24 hours. After 24 hours of incubation with the mibefradil, the A549 cells were removed from mibefradil contact. After 30 minutes of being removed from mibefradil contact, the imaging marker tritiated FDG (hereinafter “3H-FDG”) was administered. […] Although not shown, incubation of human prostate cancer cells of the PC3 cell line with 10 μM mibefradil for 72 hours increased uptake of the subsequently introduced imaging marker 3H-FDG by about 60%.

The subject of assay [6] is human prostate cancer cells of the PC3 cell line. Kind of assay: Uptake of imaging marker 3H-FDG after mibefradil, PC3. Conditions: PC3, 10 μM mibefradil for 72 hours; data not shown. The procedure:
as §2

Molecules are shown by their SMILES.

With `COC(=O)Nc1nc2ccc(C(=O)c3cccs3)cc2[nH]1` [nocodazole], the cell cycle block entry with A10 cells (A10 cells, nocodazole alone, flow cytometry) was “blocked cell cycle transit through M phase”.
As for `[Ni]` [nickel], in the assay on A10 cells, the “cell cycle arrest point” value is “arrested cells at the cell cycle checkpoint between G0 and G1”.
For `COCC(=O)O[C@]1(CCN(C)CCCc2nc3ccccc3[nH]2)CCc2cc(F)ccc2[C@@H]1C(C)C` [mibefradil], the “cell cycle arrest point” value in the assay with A10 cells is “arrested cells at the cell cycle checkpoint between G0 and G1”. Further, the “proportion of cells in the G1 phase vs control” value in assay [1] (A549, 10 μM for 18 hours, 12 hour washout, another 8 hour incubation (M18-12-18h)) is reported as “greater proportion of cells in the G1 phase”; in assay [2] (10 μM for 18 hours, 12 hour washout, another 8 hour incubation (M18-12-18h)), “greater proportion of cells in the G1 phase”. The “proportion of cells in the G1 phase” value in assay [1] (A549, 10 μM mibefradil for 48 hours (M48H), FIG. 4) is listed as “increased the proportion of cells in the G1 phase”; in assay [2] (10 μM mibefradil for 48 hours (M48H), FIG. 4) it was “increased the proportion of cells in the G1 phase”; in assay [3] it was “increases the proportion of cells in the G1 phase”. Besides, in assay [4] (HT29, 5 μM and 10 μM mibefradil 24 hours, FIG. 6), the “uptake of the imaging marker FDG vs cells not incubated” value is on record as “increased”. The “increase in uptake of FDG vs cells not incubated” value in assay [4] (HT29, 10 μM mibefradil 24 hours) is given as “about 100%”. In addition, in assay [5] (A549, 5 μM, 10 μM and 15 μM mibefradil 24 hours, FIG. 7), the “uptake of 3H-FDG” value is recorded as “increase in uptake being observed at all concentrations”. Also, the “mibefradil concentration of maximal 3H-FDG uptake” value in assay [5] (A549, 24 hours incubation, 5, 10, 15 μM tested) turned out to be 5 µM. Moreover, in assay [6], the “increase in uptake of 3H-FDG” value is “about 60%”.

The values are drawn from patent US9427429B2, “Cancer diagnosis and imaging” (Tau Therapeutics LLC, priority 2010, dated 2016).
